This data set can be described thus: Surface Area (BET method). As to conditions: isolated palbociclib free base solid. Format: physicochemical.

For the molecule `CC(=O)c1c(C)c2cnc(Nc3ccc(N4CCNCC4)cn3)nc2n(C2CCCC2)c1=O` [Example 9, 6-acetyl-8-cyclopentyl-5-methyl-2-{[5-(piperazin-1-yl)pyridin-2yl]amino}-pyrido[2,3-d]pyrimidin-7(8H)-one], the “Surface Area (BET method)” value was found to be 3.61 m^2/g.
As for `CC(=O)c1c(C)c2cnc(Nc3ccc(N4CCNCC4)cn3)nc2n(C2CCCC2)c1=O` [Example 11, 6-acetyl-8-cyclopentyl-5-methyl-2-{[5-(piperazin-1-yl)pyridin-2yl]amino}-pyrido[2,3-d]pyrimidin-7(8H)-one], the figure is 9.38 m^2/g.

The values above are taken from patent US10807978B2, “Process for preparation of palbociclib” (DR. REDDY'S LABORATORIES LIMITED, priority 2016, dated 2020).
